Values of other authors, collected in US20040142847A1, “Detergent tablets with polyurethane coating” (priority 2002, published 2004).
Values after ≈ are worked out from the molar mass of the structure shown. Where two headings read alike, the source gives them in different places. Values belong to the molecule of their own block, whether it stands above or below them.

What was measured:
[1] = for amount of the anhydrous salt that dissolves in 100 g of water: per 100 g of water
[2] = 1% strength solution at 25°
[3] = after heating the solution at 100° C. for two hours
[4] = 20° C., listing of preferred solubilizers
[5] = 20° C., listing of suitable solubilizers
[6] = 25° C., listing of preferred solubilizers

Molecule: O=C(O)CC(O)C(=O)O (racemic) [DL-Malic acid]
solubility in water ([1]; 26° C., listing of preferred solubilizers): 1440 mg/mL (≈ 10700 mM)
solubility in water ([1]; 26° C., listing of suitable solubilizers): 1440 mg/mL (≈ 10700 mM)

Molecule: [Cl-].[Cs+] [Cesium chloride]
solubility in water [1, 4]: 1800 mg/mL
solubility in water [1, 5]: 1800 mg/mL

solubility in water [1, 6]: 680 mg/mL (≈ 3770 mM)
Molecule: O=C[C@H](O)[C@@H](O)[C@@H](O)[C@H](O)CO [D(+)-Galactose]

Molecule: O=C(CO)[C@@H](O)[C@H](O)[C@@H](O)CO [L(−)-sorbose]
solubility in water ([1]; 17° C., listing of preferred solubilizers): 550 mg/mL (≈ 3050 mM)

solubility in water [1, 6]: 788 mg/mL (≈ 6790 mM)
Molecule: O=C(O)/C=C\C(=O)O [Maleic acid]

Molecule: [Cl-].[K+] [Potassium chloride]
solubility in water [1, 4]: 340 mg/mL
solubility in water [1, 5]: 340 mg/mL

Molecule: O=P([O-])([O-])OP(=O)([O-])[O-].[K+].[K+].[K+].[K+] [Potassium diphosphate]
pH of the 1% strength solution [2]: 10.4

Molecule: NC(N)=O [Urea]
solubility in water [1, 4]: 1080 mg/mL (≈ 18000 mM)
solubility in water [1, 5]: 1080 mg/mL (≈ 18000 mM)

Molecule: [Cl-].[Cl-].[Zn+2] [Zinc chloride]
solubility in water [1, 4]: 3680 mg/mL
solubility in water [1, 5]: 3680 mg/mL

amount of the anhydrous salt that dissolves in 100 g of water ([1]; 60°): about 20 g
amount of the anhydrous salt that dissolves in 100 g of water ([1]; 100°): around 32 g
amount of the anhydrous salt that dissolves in 100 g of water ([1]; room temperature): About 17 g
diphosphate produced by hydrolysis [3]: ~15%
orthophosphate produced by hydrolysis [3]: about 8%
Molecule: O=P([O-])([O-])OP(=O)([O-])OP(=O)([O-])[O-].[Na+].[Na+].[Na+].[Na+].[Na+] [pentasodium triphosphate]

solubility in water [1, 5]: 1000 mg/mL
Molecule: Sodium polyphosphate
